The results in this text go back to PubChem BioAssay (NCI).

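Compound exposure: 48 hours, 5 concentrations, 96-well plates. TGI denotes the concentration required for complete inhibition of growth.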 Bounds are passed on as bounds.

In one test the test system is NCI-H460 lung. The test is described as follows: NCI anticancer screen, dose series, 48 h.
`COc1ccc(C(=O)/C=C/c2ccc(O)c(O)c2)c(OC)c1` gave a TGI of 15.9 µM.
The same measure, in the same setting: with `CN(C)CCCN1c2ccccc2Sc2ccc3ccccc3c21` the figure was 7.66 µM.

In the next test the test system is CAKI-1 renal. As to the kind of experiment: NCI anticancer screen, dose series, 48 h.
`C[C@]12CC[C@@H]3c4cc(OCC(F)(F)F)c(O)cc4CC[C@H]3[C@@H]1CC[C@@H]2O` registered a TGI of 29.9 µM.
Take `CN(C)c1ccc(C(Cc2ccccc2)C2NC(=S)NC2=O)cc1` (centres undefined): the TGI is more than 100 µM.
In turn, `COc1ccc(C(=O)/C=C/c2ccc(O)c(O)c2)c(OC)c1` came in with a TGI of 34.5 µM.
`CN(C)CCCN1c2ccccc2Sc2ccc3ccccc3c21` registered a TGI of 18.1 µM.

In another test the test system is SNB-75 CNS. The test is described as follows: NCI anticancer screen, dose series, 48 h.
Regarding `C[C@]12CC[C@@H]3c4cc(OCC(F)(F)F)c(O)cc4CC[C@H]3[C@@H]1CC[C@@H]2O`, the TGI is 13.2 µM.
For the compound `CN(C)c1ccc(C(Cc2ccccc2)C2NC(=S)NC2=O)cc1` (centres undefined), the TGI was more than 100 µM.
Regarding `COc1ccc(C(=O)/C=C/c2ccc(O)c(O)c2)c(OC)c1`, the TGI came out at 29.5 µM.

Another test concerns MDA-N. As to the kind of experiment: NCI anticancer screen, dose series, 48 h.
`C[C@]12CC[C@@H]3c4cc(OCC(F)(F)F)c(O)cc4CC[C@H]3[C@@H]1CC[C@@H]2O`: the TGI was 1.29 µM.
With `CN(C)c1ccc(C(Cc2ccccc2)C2NC(=S)NC2=O)cc1` (centres undefined), the TGI was more than 100 µM.
The compound `COc1ccc(C(=O)/C=C/c2ccc(O)c(O)c2)c(OC)c1` displayed a TGI of more than 46.2 µM.
`CN(C)CCCN1c2ccccc2Sc2ccc3ccccc3c21` registered a TGI of 15.1 µM.

The next test has as its system A549 NSCLC. The test is described as follows: NCI anticancer screen, dose series, 48 h.
In turn, `C[C@]12CC[C@@H]3c4cc(OCC(F)(F)F)c(O)cc4CC[C@H]3[C@@H]1CC[C@@H]2O` registered a TGI of 20.6 µM.
Consider `CN(C)c1ccc(C(Cc2ccccc2)C2NC(=S)NC2=O)cc1` (centres undefined), for which the TGI is more than 100 µM.
Consider `COc1ccc(C(=O)/C=C/c2ccc(O)c(O)c2)c(OC)c1`, for which the TGI turned out to be 97.3 µM.
As to `CN(C)CCCN1c2ccccc2Sc2ccc3ccccc3c21`, the TGI is 26.6 µM.

Another test has as its system TK-10 renal. As to the kind of experiment: NCI anticancer screen, dose series, 48 h.
For `C[C@]12CC[C@@H]3c4cc(OCC(F)(F)F)c(O)cc4CC[C@H]3[C@@H]1CC[C@@H]2O`, the TGI turned out to be 40.4 µM.
`CN(C)c1ccc(C(Cc2ccccc2)C2NC(=S)NC2=O)cc1` (centres undefined) showed a TGI of more than 100 µM.
The compound `COc1ccc(C(=O)/C=C/c2ccc(O)c(O)c2)c(OC)c1` showed a TGI of 20.2 µM.
`CN(C)CCCN1c2ccccc2Sc2ccc3ccccc3c21`: the TGI is 17.7 µM.

A further test concerns SF-539 CNS. As to the kind of experiment: NCI anticancer screen, dose series, 48 h.
On to `C[C@]12CC[C@@H]3c4cc(OCC(F)(F)F)c(O)cc4CC[C@H]3[C@@H]1CC[C@@H]2O`, for which the TGI stood at 7.27 µM.
`CN(C)c1ccc(C(Cc2ccccc2)C2NC(=S)NC2=O)cc1` (centres undefined) came in with a TGI of more than 100 µM.
The same measure, in the same setting: for `COc1ccc(C(=O)/C=C/c2ccc(O)c(O)c2)c(OC)c1` the value was 7.55 µM; for `CN(C)CCCN1c2ccccc2Sc2ccc3ccccc3c21`, 30.9 µM.

The subject of a further test is SN12C renal. The test is described as follows: NCI anticancer screen, dose series, 48 h.
The compound `C[C@]12CC[C@@H]3c4cc(OCC(F)(F)F)c(O)cc4CC[C@H]3[C@@H]1CC[C@@H]2O` had a TGI of 15.5 µM.
For `CN(C)c1ccc(C(Cc2ccccc2)C2NC(=S)NC2=O)cc1` (centres undefined), the TGI is more than 100 µM.
For the compound `COc1ccc(C(=O)/C=C/c2ccc(O)c(O)c2)c(OC)c1`, the TGI turned out to be 13.2 µM.
In turn, `CN(C)CCCN1c2ccccc2Sc2ccc3ccccc3c21` returned a TGI of 22.9 µM.

A further test has as its system SF-268 CNS. The test is described as follows: NCI anticancer screen, dose series, 48 h.
As to `C[C@]12CC[C@@H]3c4cc(OCC(F)(F)F)c(O)cc4CC[C@H]3[C@@H]1CC[C@@H]2O`, the TGI came out at 35.2 µM.
With `CN(C)c1ccc(C(Cc2ccccc2)C2NC(=S)NC2=O)cc1` (centres undefined), the TGI is more than 100 µM.
`COc1ccc(C(=O)/C=C/c2ccc(O)c(O)c2)c(OC)c1` had a TGI of more than 52.6 µM.
On to `CN(C)CCCN1c2ccccc2Sc2ccc3ccccc3c21`, for which the TGI came to 23.4 µM.

The next test deals with SR leukemia. The test is described as follows: NCI anticancer screen, dose series, 48 h.
Regarding `C[C@]12CC[C@@H]3c4cc(OCC(F)(F)F)c(O)cc4CC[C@H]3[C@@H]1CC[C@@H]2O`, the TGI stood at 2.47 µM.
`CN(C)c1ccc(C(Cc2ccccc2)C2NC(=S)NC2=O)cc1` (centres undefined) yielded a TGI of more than 100 µM.
On to `COc1ccc(C(=O)/C=C/c2ccc(O)c(O)c2)c(OC)c1`, for which the TGI amounted to 6.54 µM.
Take `CN(C)CCCN1c2ccccc2Sc2ccc3ccccc3c21`: the TGI turned out to be 3.84 µM.

Another test concerns HOP-62 NSCLC. As to the kind of experiment: NCI anticancer screen, dose series, 48 h.
The compound `C[C@]12CC[C@@H]3c4cc(OCC(F)(F)F)c(O)cc4CC[C@H]3[C@@H]1CC[C@@H]2O` registered a TGI of 26.7 µM.
Take `CN(C)c1ccc(C(Cc2ccccc2)C2NC(=S)NC2=O)cc1` (centres undefined): the TGI was more than 100 µM.
In turn, `COc1ccc(C(=O)/C=C/c2ccc(O)c(O)c2)c(OC)c1` came in with a TGI of 60.3 µM.
The compound `CN(C)CCCN1c2ccccc2Sc2ccc3ccccc3c21` yielded a TGI of 24.8 µM.

A further test deals with HS 578T breast. The test is described as follows: NCI anticancer screen, dose series, 48 h.
Compound `C[C@]12CC[C@@H]3c4cc(OCC(F)(F)F)c(O)cc4CC[C@H]3[C@@H]1CC[C@@H]2O` displayed a TGI of 23 µM.
On to `CN(C)c1ccc(C(Cc2ccccc2)C2NC(=S)NC2=O)cc1` (centres undefined), for which the TGI was more than 100 µM.
In turn, `COc1ccc(C(=O)/C=C/c2ccc(O)c(O)c2)c(OC)c1` gave a TGI of more than 100 µM.
Same read-out and setting: for `CN(C)CCCN1c2ccccc2Sc2ccc3ccccc3c21` the value was 25.6 µM.

For the next test, the system named is DU-145 prostate. The test is described as follows: NCI anticancer screen, dose series, 48 h.
Turning to `C[C@]12CC[C@@H]3c4cc(OCC(F)(F)F)c(O)cc4CC[C@H]3[C@@H]1CC[C@@H]2O`, the TGI was found to be 29.4 µM.
The same measure, in the same setting: for `CN(C)c1ccc(C(Cc2ccccc2)C2NC(=S)NC2=O)cc1` (centres undefined) the value was more than 100 µM; for `COc1ccc(C(=O)/C=C/c2ccc(O)c(O)c2)c(OC)c1`, 15.7 µM.
Regarding `CN(C)CCCN1c2ccccc2Sc2ccc3ccccc3c21`, the TGI was 25.4 µM.

The test system of the next test is SW-620 colon. The test is described as follows: NCI anticancer screen, dose series, 48 h.
In turn, `C[C@]12CC[C@@H]3c4cc(OCC(F)(F)F)c(O)cc4CC[C@H]3[C@@H]1CC[C@@H]2O` yielded a TGI of 9.03 µM.
`CN(C)c1ccc(C(Cc2ccccc2)C2NC(=S)NC2=O)cc1` (centres undefined) returned a TGI of more than 100 µM.
Turning to `COc1ccc(C(=O)/C=C/c2ccc(O)c(O)c2)c(OC)c1`, the TGI is more than 63.8 µM.
`CN(C)CCCN1c2ccccc2Sc2ccc3ccccc3c21`: the TGI was determined as 22.6 µM.

For a further test, the system named is OVCAR-5 ovarian. The test is described as follows: NCI anticancer screen, dose series, 48 h.
In the case of `C[C@]12CC[C@@H]3c4cc(OCC(F)(F)F)c(O)cc4CC[C@H]3[C@@H]1CC[C@@H]2O`, the TGI amounted to 37.7 µM.
The compound `CN(C)c1ccc(C(Cc2ccccc2)C2NC(=S)NC2=O)cc1` (centres undefined) yielded a TGI of more than 100 µM.
For `COc1ccc(C(=O)/C=C/c2ccc(O)c(O)c2)c(OC)c1`, the TGI was determined as 47.2 µM.
Consider `CN(C)CCCN1c2ccccc2Sc2ccc3ccccc3c21`, for which the TGI is 24.7 µM.

Another test deals with HOP-92 NSCLC. As to the kind of experiment: NCI anticancer screen, dose series, 48 h.
`C[C@]12CC[C@@H]3c4cc(OCC(F)(F)F)c(O)cc4CC[C@H]3[C@@H]1CC[C@@H]2O`: the TGI was 21.8 µM.
`CN(C)c1ccc(C(Cc2ccccc2)C2NC(=S)NC2=O)cc1` (centres undefined) displayed a TGI of more than 100 µM.
